Assay results as given in patent US20260022142A1, “MACROCYCLIC IMMUNOMODULATORS” (Bristol-Myers Squibb Company, priority 2022, published 2026).
Numbered stars: 1 amine (or outer) side, 2 acyl side, 3 side chain; on linkers, the order of the positions; unused ones are H or OH. Bridge positions count the residues as written; N and C are the ends. Square brackets hold non-standard residues; d marks the D form. Peptide text beside a SMILES is read from it. * marks the point of attachment. ξ: configuration not given here. Phe(3-CF3) = N[C@@H](Cc1cccc(C(F)(F)F)c1)C(=O)O; Phe(4-COOH) = N[C@@H](Cc1ccc(C(=O)O)cc1)C(=O)O; Bip = N[C@@H](Cc1ccc(-c2ccccc2)cc1)C(=O)O; Phe(3-Me) = Cc1cccc(C[C@H](N)C(=O)O)c1; γGlu = O=C(O)[C@H](CCC(=O)[*:2])N[*:1]; NH(CH2)12COOH = O=C(O)CCCCCCCCCCCCN*; His(π-Me) = Cn1cncc1C[C@H](N)C(=O)O; Val(3-OH) = CC(C)(O)[C@H](N)C(=O)O; Cha = N[C@@H](CC1CCCCC1)C(=O)O; Cit = NC(=O)NCCC[C@H](N)C(=O)O; aThr = C[C@H](O)[C@H](N)C(=O)O; dCha = N[C@H](CC1CCCCC1)C(=O)O; Thr(3ξ) = CC(O)[C@H](N)C(=O)O; dNle = CCCC[C@@H](N)C(=O)O; dDab = NCC[C@@H](N)C(=O)O; Carboxymethyl = O=C(O)C*; Orn = NCCC[C@H](N)C(=O)O; Aun = NCCCCCCCCCCC(=O)O; Dab = NCC[C@H](N)C(=O)O; Dap = NC[C@H](N)C(=O)O; AEEA = NCCOCCOCC(=O)O

Each compound was assayed against T1, PD-1/PD-L1 interaction (PE-labeled human PD-L1-Ig binding to Jurkat cell line over-expressing human PD-1) (Homo sapiens, UniProt Q15116) (assay: Jurkat-PD-1 Cell Binding High-Content Screening Assay (CBA)). Conditions: Jurkat cell line over-expressing human PD-1; PE-labeled PD-L1-Ig 20 nM final; read-out: Jurkat hPD1-PDL1 IC50.
T1 construct: expressed in transfected cells; host or cells: Jurkat
Type: cell-based
Summary of the method: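 Human PD-L1-Ig carrying a covalent PE label on its Ig tag serves as the probe, applied at 20 nM final to compound-treated (2 h, 37° C) Jurkat-hPD-1 cells in medium with 10% fetal calf serum. After one hour, fixation and nuclear staining precede high-content image analysis.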

T1 sequence (Q15116 25-288): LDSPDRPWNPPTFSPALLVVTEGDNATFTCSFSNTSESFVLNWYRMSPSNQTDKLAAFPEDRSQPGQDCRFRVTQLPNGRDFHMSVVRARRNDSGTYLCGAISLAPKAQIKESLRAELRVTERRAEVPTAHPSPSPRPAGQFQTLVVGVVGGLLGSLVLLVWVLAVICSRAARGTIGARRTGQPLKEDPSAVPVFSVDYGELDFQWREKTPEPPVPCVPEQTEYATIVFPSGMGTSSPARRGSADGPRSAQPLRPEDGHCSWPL

SMILES | IC50 [nM]
Cc1cccc(C[C@@H]2NC(=O)[C@H](CC(=O)O)NC(=O)[C@H](Cc3ccc(OCC(=O)O)cc3)NC(=O)[C@H](CN)NC(=O)CSC[C@@H](C(=O)NCCOCCOCC(=O)N[C@@H](CCN)C(=O)NCCCCCCCCCCC(=O)O)NC(=O)[C@H](CCCN)NC(=O)[C@H](C(C)C)NC(=O)[C@H](CC3CCCCC3)NC(=O)[C@H](CCN)NC(=O)[C@@H](CC3CCCCC3)NC(=O)[C@H](CCCN)NC(=O)[C@H](C(C)C)NC(=O)[C@H](Cc3ccc(-c4ccccc4)cc3)NC(=O)[C@H](C(C)C)NC2=O)c1 [Compound 2677] ({CH2CO}-[Dap]Y(Carboxymethyl)D[Phe(3-Me)]V[Bip]V[Orn][dCha][Dab][Cha]V[Orn]C[AEEA][Dab][Aun]-OH; thioether N-14) | 18
CC(=O)NCCCC[C@H](NC(=O)[C@@H]1CSCC(=O)N[C@@H](CCN)C(=O)N[C@@H](Cc2ccc(OCC(=O)O)cc2)C(=O)N[C@@H](CC(=O)O)C(=O)N[C@@H](Cc2cccc(C)c2)C(=O)N[C@@H](C(C)C)C(=O)N[C@@H](Cc2ccc(-c3ccccc3)cc2)C(=O)N[C@@H](CCCNC(N)=O)C(=O)N[C@@H](CCCN)C(=O)N[C@H](CC(C)C)C(=O)N[C@@H](CN)C(=O)N[C@@H](CC2CCCCC2)C(=O)N[C@@H](C(C)C)C(=O)N[C@@H](C(C)O)C(=O)N1)C(=O)NCCCCCCCCCCC(=O)O (stereo partly drawn) [Compound 3563] ({CH2CO}-[Dab]Y(Carboxymethyl)D[Phe(3-Me)]V[Bip][Cit][Orn][dL][Dap][Cha]V[Thr(3ξ)]CK(Ac)[Aun]-OH; thioether N-14) | 43.9
Cc1cccc(C[C@@H]2NC(=O)[C@H](CC(=O)O)NC(=O)[C@H](Cc3ccc(O)cc3)NC(=O)[C@H]([C@@H](C)O)NC(=O)CSC[C@@H](C(=O)N[C@@H](CCN)C(=O)NCCOCCOCC(=O)NCCCCCCCCCCC(=O)O)NC(=O)[C@H](CO)NC(=O)[C@H](C(C)(C)O)NC(=O)[C@H](CC3CCCCC3)NC(=O)[C@H](CCN)NC(=O)[C@@H](CC(C)C)NC(=O)[C@H](CCCN)NC(=O)[C@H](Cc3ccc(OCC(=O)O)cc3)NC(=O)[C@H](Cc3ccc(-c4ccccc4)cc3)NC(=O)[C@H](Cc3ccc(OCC(=O)O)cc3)NC2=O)c1 [Compound 2245] ({CH2CO}-TYD[Phe(3-Me)]Y(Carboxymethyl)[Bip]Y(Carboxymethyl)[Orn][dL][Dab][Cha][Val(3-OH)]SC[Dab][AEEA][Aun]-OH; thioether N-14) | 1.2
CC(C)C[C@H]1NC(=O)[C@H](CCCN)NC(=O)[C@H](C(C)C)NC(=O)[C@H](Cc2ccc(-c3ccccc3)cc2)NC(=O)[C@H](C(C)C)NC(=O)[C@H](Cc2c[nH]c3ccccc23)NC(=O)[C@H](CC(=O)O)NC(=O)[C@H](Cc2ccc(OCC(=O)O)cc2)NC(=O)[C@H](CCCNC(=N)N)NC(=O)CSC[C@@H](C(=O)N[C@@H](CCN)C(=O)NCCCCCCCCCCC(=O)O)NC(=O)[C@H](CN)NC(=O)[C@H](C(C)C)NC(=O)[C@H](CC2CCCCC2)NC(=O)[C@H](CCN)NC1=O [Compound 3287] ({CH2CO}-RY(Carboxymethyl)DWV[Bip]V[Orn][dL][Dab][Cha]V[Dap]C[Dab][Aun]-OH; thioether N-14) | 10.8
CCCC[C@H]1NC(=O)[C@H](CCCN)NC(=O)[C@H](C(C)C)NC(=O)[C@H](Cc2ccc(-c3ccccc3)cc2)NC(=O)[C@H](C(C)C)NC(=O)[C@H](Cc2cccc(C)c2)NC(=O)[C@H](CC(=O)O)NC(=O)[C@H](Cc2ccc(OCC(=O)O)cc2)NC(=O)[C@H](CN)NC(=O)CSC[C@@H](C(=O)N[C@@H](CCN)C(=O)NCCOCCOCC(=O)NCCCCCCCCCCC(=O)O)NC(=O)[C@H](CN)NC(=O)[C@H](C(C)C)NC(=O)[C@H](CC2CCCCC2)NC(=O)[C@H](CCN)NC1=O [Compound 2680] ({CH2CO}-[Dap]Y(Carboxymethyl)D[Phe(3-Me)]V[Bip]V[Orn][dNle][Dab][Cha]V[Dap]C[Dab][AEEA][Aun]-OH; thioether N-14) | 13.2
CC(=O)NCCCC[C@@H]1NC(=O)[C@H](C(C)(C)O)NC(=O)[C@H](CC2CCCCC2)NC(=O)[C@H](CCN)NC(=O)[C@@H](CC(C)C)NC(=O)[C@H](CCCN)NC(=O)[C@H](Cc2ccc(OCC(=O)O)cc2)NC(=O)[C@H](Cc2ccc(-c3ccccc3)cc2)NC(=O)[C@H](Cc2ccc(C(=O)O)cc2)NC(=O)[C@H](Cc2cccc(C(F)(F)F)c2)NC(=O)[C@H](CC(=O)O)NC(=O)[C@H](Cc2ccc(OCC(=O)O)cc2)NC(=O)[C@H]([C@H](C)O)NC(=O)CSC[C@@H](C(=O)N[C@H](CCN)C(=O)NCCOCCOCC(=O)N[C@@H](CCC(=O)NCCOCCOCC(=O)NCCCCCCCCCCCCC(=O)O)C(=O)O)NC1=O [Compound 3899] ({CH2CO}-[aThr]Y(Carboxymethyl)D[Phe(3-CF3)][Phe(4-COOH)][Bip]Y(Carboxymethyl)[Orn][dL][Dab][Cha][Val(3-OH)]K(Ac)C[dDab][AEEA][γGlu][AEEA]-{NH(CH2)12COOH}; thioether N-14) | 27.4

Continued, values first:

IC50 [nM] | SMILES
16.9 | Cc1cccc(C[C@@H]2NC(=O)[C@H](CC(=O)O)NC(=O)[C@H](Cc3ccc(OCC(=O)O)cc3)NC(=O)[C@H](CCN)NC(=O)CSC[C@@H](C(=O)N[C@@H](CCN)C(=O)NCCOCCOCC(=O)NCCCCCCCCCCCCC(=O)O)NC(=O)[C@H](Cc3c[nH]cn3)NC(=O)[C@H](C(C)(C)O)NC(=O)[C@H](CC3CCCCC3)NC(=O)[C@H](CCN)NC(=O)[C@@H](CC(C)C)NC(=O)[C@H](CCCN)NC(=O)[C@H](Cc3ccc(OCC(=O)O)cc3)NC(=O)[C@H](Cc3ccc(-c4ccccc4)cc3)NC(=O)[C@H](Cc3ccc(OCC(=O)O)cc3)NC2=O)c1 [Compound 2871] ({CH2CO}-[Dab]Y(Carboxymethyl)D[Phe(3-Me)]Y(Carboxymethyl)[Bip]Y(Carboxymethyl)[Orn][dL][Dab][Cha][Val(3-OH)]HC[Dab][AEEA]-{NH(CH2)12COOH}; thioether N-14)
10.9 | Cc1cccc(C[C@@H]2NC(=O)[C@H](CC(=O)O)NC(=O)[C@H](Cc3ccc(OCC(=O)O)cc3)NC(=O)[C@H](Cc3cncn3C)NC(=O)CSC[C@@H](C(=O)N[C@@H](CCN)C(=O)NCCCCCCCCCCC(=O)O)NC(=O)[C@H](CO)NC(=O)[C@H](C(C)(C)O)NC(=O)[C@H](CC3CCCCC3)NC(=O)[C@H](CCN)NC(=O)[C@@H](CC(C)C)NC(=O)[C@H](CCCN)NC(=O)[C@H](Cc3ccc(OCC(=O)O)cc3)NC(=O)[C@H](Cc3ccc(-c4ccccc4)cc3)NC(=O)[C@H](Cc3ccc(OCC(=O)O)cc3)NC2=O)c1 [Compound 2141] ({CH2CO}-[His(π-Me)]Y(Carboxymethyl)D[Phe(3-Me)]Y(Carboxymethyl)[Bip]Y(Carboxymethyl)[Orn][dL][Dab][Cha][Val(3-OH)]SC[Dab][Aun]-OH; thioether N-14)
239 | Cc1cccc(C[C@@H]2NC(=O)[C@H](CC(=O)O)NC(=O)[C@H](Cc3ccc(OCC(=O)O)cc3)NC(=O)[C@@H](CCN)NC(=O)CSC[C@@H](C(=O)N[C@@H](CCN)C(=O)NCCCCCCCCCCC(=O)O)NC(=O)[C@H](Cc3cnc[nH]3)NC(=O)[C@H](C(C)(C)O)NC(=O)[C@H](CC3CCCCC3)NC(=O)[C@H](CCN)NC(=O)[C@@H](CC(C)C)NC(=O)[C@H](CCCN)NC(=O)[C@H](Cc3ccc(C(=O)O)cc3)NC(=O)[C@H](Cc3ccc(-c4ccccc4)cc3)NC(=O)[C@H](Cc3ccc(C(=O)O)cc3)NC2=O)c1 [Compound 3770] ({CH2CO}-[dDab]Y(Carboxymethyl)D[Phe(3-Me)][Phe(4-COOH)][Bip][Phe(4-COOH)][Orn][dL][Dab][Cha][Val(3-OH)]HC[Dab][Aun]-OH; thioether N-14)
